Measurements as given in PMC6403271, “Characterization, mechanism of action and optimization of activity of a novel peptide-peptoid hybrid against bacterial pathogens involved in canine skin infections” (Scientific Reports, 2019).
Square brackets hold non-standard residues; d marks the D form. Peptide text beside a SMILES is read from it. N(1-naphthylmethyl)Gly = O=C(O)CNCc1cccc2ccccc12; d1Nal = N[C@H](Cc1cccc2ccccc12)C(=O)O; N(4-MeBn)Gly = Cc1ccc(CNCC(=O)O)cc1; dNle = CCCC[C@@H](N)C(=O)O; NBuGly = CCCCNCC(=O)O

Key:
MRSP E104 [1] = test: Time-kill kinetics, MRSP E104; format: cell-based, Staphylococcus pseudintermedius
Experimental: Time kill assays were performed in triplicate, meaning that every value is the average of three different samplings. Time–kill kinetic assays were performed using P. aeruginosa (26314), MRSP E104 and/or MRSP C22963 to determine the cell killing activity of B1 and two of its most promising analogues (compounds 23 and 26) based on prior antimicrobial susceptibility testing. The method reported by Blondeau et al.[63] was followed with minor modifications. […] After 0, 15, 30, 60, 120, 180 and 300 min of growth, 100 μL aliquots were collected and 10-fold serially diluted. Twenty μL of cell suspension from each dilution were spotted in triplicate on blood agar plates followed by 16–18 h incubation at 37 °C and determination of colony forming units (CFU).

MSSA (ATCC 29213) = format: cell-based, Staphylococcus aureus; conditions: ATCC 29213, 18 h
How it was run: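 Broth microdilution per CLSI M31-A3 on canine clinical isolates plus reference MRSP C22963, MSSA and P. aeruginosa 26314; 5 × 10^5 CFU/mL in MHB II with two-fold dilutions from 1 to 64 µg/ml. MIC = lowest concentration without visible growth after 18 hours at 37 °C; triplicates on two days.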

[2] = tested on: cell wall synthesis in MRSP E104; test: Macromolecule biosynthesis rate, cell wall (3H-glucosamine); format: cell-based, Staphylococcus pseudintermedius; conditions: MRSP E104, 1.5 µg/mL, 20 min
Experimental: Macromolecule biosynthesis rate was measured in MRSP E104 following a protocol adapted from Ling et al.[65]. Briefly, E104 overnight culture was sub-cultured 1:100 in MHB II and grown up to OD 0.2 at 600 nm. Cells were pelleted down by centrifugation and resuspended in fresh medium followed by incubation for 20 min with B1 or nisin at 1.5 µg/ml and 1.25 µg/ml, respectively, and radiolabeled precursor: (50µCi) 3H-Thymidine (PerkinElmer) and (5µCi) 3H-glucosamine hydrochloride per ml for DNA and cell wall, respectively. A positive control without antimicrobial was maintained. After incubation, samples were precipitated with equal volume of cold 30% TCA (Sigma) on ice. Precipitates were filtered on a membrane filter and subsequently subjected to two washes of cold 15% TCA and two washes of cold water using vacuum manifold. Subsequently, filters were air dried overnight and then transferred to 10 ml scintillation vials. Finally, scintillation fluid (3 ml) was added to each vial and ^3H count was taken in Beckman Coulter LS6500 liquid scintillation counter for one minute. The radioactive counts of the control samples were considered to have 100% precursor incorporation and macromolecule synthesis. The percentage rates of the antimicrobial-exposed samples were calculated accordingly. Each experiment was performed with replicates and the average rates of incorporation were plotted.

MRSP E104 [3] = test: High-throughput growth curves (BioScreen); format: cell-based, Staphylococcus pseudintermedius; conditions: 3 µg/ml; decrease of OD over time
Experimental: The effects of B1 on the growth of a reference MRSP strain (ST71, E104) were evaluated using BioScreen (Oy Growth Curves Ab LTd, Finland). A well characterized antimicrobial peptide, Nisin, was used as a positive control. […] The OD600 of each micro-culture was measured and recorded every 15 min after a 5 second pause of shaking in automatic mode. The recorded ODs were plotted against time to prepare the growth curves. The assay was performed with technical and biological replicates, and one representative result was presented.

Pronase = conditions: cited from earlier work
[4] = tested on: membrane potential of MRSP E104; test: DiSC3(5) fluorescence-based membrane potential study; format: cell-based, Staphylococcus pseudintermedius; conditions: MRSP E104, sub-inhibitory concentration 1.5 µg/mL
Experimental: Freshly sub-cultured E104 cells were labelled with 1 µM 3,3-Dipropylthiadicarbocyanine iodide [DiSC3(5)] (Sigma) in MHB II. The fluorescence spectra of labelled cells were plotted in the LS50B luminescence spectrometer (PerkinElmer) at excitation/emission wavelengths 546 nm/573 nm using time drive application of FLWINLAB software. After reading an initial stable emission spectra of DiSC3(5), labelled cells were treated with B1 or nisin or protonophore CCCP at 1, 1.5 and 1.25 µg/ml, respectively and the change of fluorescence over time was recorded. The increment of DiSC3(5) fluorescence upon addition of antimicrobials or CCCP (FUafter-treatment – FUbefore-treatment) was plotted. This experiment was performed twice and each time with two technical replicates.

[5] = topical delivery from cream formulation; cited from earlier work
human red blood cells = tested on: human red blood cells; design: method as in PMID 29534469; conditions: at 150 µM; cited from earlier work
[6] = Precipitation in time-kill media; format: physicochemical; conditions: time-kill experiment against P. aeruginosa, MHB II
Experimental: Time kill assays were performed in triplicate, meaning that every value is the average of three different samplings. Time–kill kinetic assays were performed using P. aeruginosa (26314), MRSP E104 and/or MRSP C22963 to determine the cell killing activity of B1 and two of its most promising analogues (compounds 23 and 26) based on prior antimicrobial susceptibility testing. The method reported by Blondeau et al.[63] was followed with minor modifications. Briefly, the assay was performed in MHB II with concentrations corresponding to 0.5, 1, 2 and 4 times the MIC of the strain. After 0, 15, 30, 60, 120, 180 and 300 min of growth, 100 μL aliquots were collected and 10-fold serially diluted. Twenty μL of cell suspension from each dilution were spotted in triplicate on blood agar plates followed by 16–18 h incubation at 37 °C and determination of colony forming units (CFU).

Row | Structure (SMILES) | time to complete killing of MRSP E104 (MRSP E104 [1]; 2 × MIC) [h] | time to complete killing of MRSP E104 (MRSP E104 [1]; 4 × MIC) [h] | time to kill MRSP (MRSP E104 [1]; 8 x MIC) | Minimum Inhibitory Concentration MSSA (ATCC 29213) (MSSA (ATCC 29213)) [µg/mL] | reduction in cell wall synthesis [2] [%] | growth curve effect on MRSP E104 (MRSP E104 [3]) | degradation by protease mix Pronase (Pronase) [%] | membrane potential, DiSC3(5) fluorescence emission [4] | skin penetration after administration [5] | hemolytic activity (human red blood cells) [%] | precipitation in the media [6]
1 | CCCCN(CC(=O)N[C@@H](CCCCN)C(=O)N(CC(=O)N(CC(=O)N(CC(N)=O)Cc1cccc2ccccc12)Cc1ccc(C)cc1)Cc1cccc2ccccc12)C(=O)[C@H](CCCCN)NC(=O)[C@@H](N)CCCCN [B1, Lys-Lys-(NBu)Gly-Lys-(N1-Nal)Gly-(N4-MeBn)Gly-(N1-Nal)Gly] (H-KK[NBuGly]K[N(1-naphthylmethyl)Gly][N(4-MeBn)Gly][N(1-naphthylmethyl)Gly]-NH2) | 2 | 1 | less than 30 min | 8 to 16 | 20 | cell lysis | 38 | significant membrane depolarization | no skin penetration | 32 | –
2 | CCCC[C@@H](NC(=O)[C@H](CCCCN)NC(=O)[C@H](CCCCN)NC(=O)[C@@H](N)CCCCN)C(=O)N[C@H](Cc1cccc2ccccc12)C(=O)N[C@H](Cc1ccccc1)C(=O)N[C@H](Cc1cccc2ccccc12)C(N)=O [Compound 26, Lys-Lys-Lys-nle-(1-Nal)ala-phe-(1-Nal)ala] (H-KKK[dNle][d1Nal][dF][d1Nal]-NH2; N-terminus assumed) | – | – | – | – | – | – | – | – | – | – | precipitated after 15 min
